Patent US11684606B2, “Methods of treating generalized pustular psoriasis with an antagonist of CCR6 or CXCR2” (CHEMOCENTRYX, INC., priority 2018, dated 2023)
In brackets after ≈: the same amount, converted by molar mass. Entries after “also recorded” stand apart in the source; their conditions may differ.

Key:
[1] = molecular target: T1, mCCR7 (Mus musculus, UniProt P47774); test: Chemotaxis of mouse splenocytes to mCCL19; type: cell-based; details: in serum; unit inferred
T1 construct: endogenous in cells; host or cells: mouse splenocytes (from the earlier reading's assay name)
T1 sequence (P47774 25-378): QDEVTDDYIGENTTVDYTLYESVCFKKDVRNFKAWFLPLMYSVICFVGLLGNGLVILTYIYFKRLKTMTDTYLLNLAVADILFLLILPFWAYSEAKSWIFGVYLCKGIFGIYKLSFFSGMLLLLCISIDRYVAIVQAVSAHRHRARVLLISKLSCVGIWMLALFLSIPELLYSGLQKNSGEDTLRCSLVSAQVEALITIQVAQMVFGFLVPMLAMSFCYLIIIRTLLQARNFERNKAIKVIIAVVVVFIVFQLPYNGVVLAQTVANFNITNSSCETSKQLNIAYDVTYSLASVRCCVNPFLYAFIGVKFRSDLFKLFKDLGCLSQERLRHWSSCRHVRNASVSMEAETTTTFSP

[2] = molecular target: T2, mCCR1 (Mus musculus, UniProt P51675); test: Chemotaxis of mouse WEHI-274.1 cells to mCCL3; type: cell-based; details: in serum; unit inferred
T2 construct: endogenous in cells; host or cells: mouse WEHI-274.1 cells (from the earlier reading's assay name)
T2 sequence (P51675 1-355): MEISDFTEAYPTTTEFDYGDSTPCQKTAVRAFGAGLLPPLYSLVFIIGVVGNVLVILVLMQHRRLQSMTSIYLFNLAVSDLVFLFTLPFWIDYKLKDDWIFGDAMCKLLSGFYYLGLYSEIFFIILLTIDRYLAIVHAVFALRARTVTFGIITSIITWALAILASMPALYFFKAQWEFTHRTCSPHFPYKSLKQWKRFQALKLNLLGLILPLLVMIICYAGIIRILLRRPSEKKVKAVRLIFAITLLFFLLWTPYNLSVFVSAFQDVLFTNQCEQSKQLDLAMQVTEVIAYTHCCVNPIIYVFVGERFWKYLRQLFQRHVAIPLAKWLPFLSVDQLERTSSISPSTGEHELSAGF

[3] = molecular target: T3, mCCR4 (Mus musculus, UniProt P51680); test: Chemotaxis of mCCR4-transfected BaF3 cells to mCCL22; type: cell-based; details: A2 value, unit not given
T3 construct: expressed in transfected cells; host or cells: BaF3 cells (from the earlier reading's assay name)
T3 sequence (P51680 1-360): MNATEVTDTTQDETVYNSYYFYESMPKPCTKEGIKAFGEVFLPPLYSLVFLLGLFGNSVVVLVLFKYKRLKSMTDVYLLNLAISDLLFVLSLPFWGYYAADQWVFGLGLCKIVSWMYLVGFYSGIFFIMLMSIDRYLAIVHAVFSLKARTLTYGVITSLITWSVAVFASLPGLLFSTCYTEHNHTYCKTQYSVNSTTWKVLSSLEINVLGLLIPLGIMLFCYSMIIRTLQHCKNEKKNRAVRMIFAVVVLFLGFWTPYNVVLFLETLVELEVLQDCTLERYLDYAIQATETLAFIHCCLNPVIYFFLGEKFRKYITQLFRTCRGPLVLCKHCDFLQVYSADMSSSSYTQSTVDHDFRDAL

[4] = Plasma concentrations at trough after s.c. q.d. dosing; type: in vivo; details: Balb/c, mouse, subcutaneous, 24 hours post final dose (day 5), mice
Experimental: (§1) For in vivo dosing, mice were dosed subcutaneously with Compound 1.136 once daily (s.c. q.d. in 1% HPMC) at 90 mg/kg unless stated otherwise, starting at day 0 of a study. The in vivo dose was predicted based on in vitro potency and the pharmacokinetic response to a single dose in mice. The minimum antagonist concentration (at trough) to fully cover a gradient-sensing chemoattractant receptor has been determined to correspond with the IC90 concentration (Schall, T. J., and A. E. Proudfoot. 2011. Overcoming hurdles in developing successful drugs targeting chemokine receptors. Nat Rev Immunol 11: 355-363).

[5] = system: IL-36α-injected ears of Balb/c mice; test: H&E histology and epidermal thickness of IL-36α-injected ears; type: in vivo, mouse
Experimental: as §1
For hematoxylin and eosin (H&E) staining, ear tissue was initially fixed in paraformaldehyde for paraffin embedding. Samples were processed by standard procedures. Epidermal thickness was measured as the average of 7 measurements made along the center third (the area containing the lesion) of the length of the H&E stained ear sections using Photoshop CS4 software (Adobe®)

[6] = molecular target: T4, mCXCR4 (Mus musculus, UniProt P70658); test: Chemotaxis of mouse BaF3-WT to mCXCL12; type: cell-based; details: in serum; unit inferred
T4 construct: endogenous in cells; host or cells: mouse BaF3-WT cells (from the earlier reading's assay name)
T4 sequence (P70658 whole entry): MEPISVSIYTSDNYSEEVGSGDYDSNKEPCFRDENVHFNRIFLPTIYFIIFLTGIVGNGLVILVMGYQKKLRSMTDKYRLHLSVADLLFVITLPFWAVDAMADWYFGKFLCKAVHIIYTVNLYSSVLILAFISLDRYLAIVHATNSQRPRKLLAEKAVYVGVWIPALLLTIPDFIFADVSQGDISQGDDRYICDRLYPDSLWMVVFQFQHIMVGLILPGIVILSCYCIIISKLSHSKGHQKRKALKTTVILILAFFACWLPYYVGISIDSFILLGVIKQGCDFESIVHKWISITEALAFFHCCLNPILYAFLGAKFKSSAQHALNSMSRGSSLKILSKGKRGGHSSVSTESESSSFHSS

[7] = molecular target: T5, mCXCR2 (Mus musculus, UniProt P35343); test: In vitro inhibition of chemotaxis, mouse bone marrow cells to mCXCL1; type: cell-based; details: in 100% serum
T5 construct: endogenous in cells; host or cells: mouse bone marrow cells (from the earlier reading's assay name)
T5 sequence (P35343 1-359): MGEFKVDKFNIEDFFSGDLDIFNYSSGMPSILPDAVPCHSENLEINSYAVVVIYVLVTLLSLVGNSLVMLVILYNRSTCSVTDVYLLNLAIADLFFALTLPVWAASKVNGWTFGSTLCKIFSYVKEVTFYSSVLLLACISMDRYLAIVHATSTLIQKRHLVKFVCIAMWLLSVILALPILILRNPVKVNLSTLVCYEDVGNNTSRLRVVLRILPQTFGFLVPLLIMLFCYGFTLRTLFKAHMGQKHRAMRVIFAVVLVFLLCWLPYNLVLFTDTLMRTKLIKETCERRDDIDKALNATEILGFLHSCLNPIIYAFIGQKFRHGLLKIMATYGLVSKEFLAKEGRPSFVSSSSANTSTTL
Experimental: For in vitro determination of chemokine receptor inhibitor activity, Compound 1.136 was dissolved in DMSO to generate a stock concentration of 10 mM that was further diluted in chemotaxis migration buffer (HBSS, 1% BSA, 1% HEPES) to create a 10-point inhibitor gradient ranging from 100 nM-0.01 nM. Migration assay was then run in 100% mouse serum in response to rmCCL20 for CCR6 activity or rmCXCL1 for CXCR2 activity using ChemoTx plates (Neuroprobe, Gaithersburg Md.) and assessed by fluorescence staining of migrated cells with CyQuant (Thermo Fisher).

IC50 [1]: 6 µM
IC50 [2]: > 10 µM
A2 for chemotaxis of mCCR4-transfected BaF3 cells to mCCL22 in serum [3]: >10,000
concentration at 24 h ([4]; 30 mg/kg s.c. q.d. in 1% HPMC): 267 ± 18 ng/mL
concentration at 24 h ([4]; 60 mg/kg s.c. q.d. in 1% HPMC): 323 ± 20 ng/mL
concentration at 24 h ([4]; 90 mg/kg s.c. q.d. in 1% HPMC): 973 ± 19 ng/mL
IC50 [6]: > 10 µM
IC50 ([7]; read-out: IC50 on mouse CXCR2, in vitro inhibition of chemotaxis): 0.02 µM
IC90 ([7]; read-out: IC90 for CXCR2 inhibition): 0.145 µg/mL (≈ 0.33 µM)
SMILES: CCC(C)(C)[C@@H](Nc1c(Nc2c(F)ccc3c2C(=O)N[C@H]3C)c(=O)c1=O)c1ccc(C)o1 [Compound 1.136]
IL-36α-mediated epidermal thickness ([5]; H&E ear sections after 4 daily IL-36α treatments, Compound 1.136 90 mg/kg/day s.c., anti-IL17RA 200 μg/mouse/day IP, 90 mg/kg/day): significantly reduced IL-36α-mediated epidermal thickness; also recorded: substantially reduces epidermal thickness
Stratum corneum and leukocyte infiltration in histology ([5]; H&E sections after 4 days of treatment, Compound 1.136 90 mg/kg daily): the stratum corneum remained intact and leukocyte infiltration was reduced
Histology of IL-36α-injected ears: dermal, epidermal and overall skin thickness ([5]; H&E sections after 4 days of treatment, Compound 1.136 90 mg/kg daily, 90 mg/kg): reduced IL-36α-induced dermal, epidermal and overall skin thickness; also recorded: substantially improves histology of IL-36α-injected ears
